PubChem BioAssay (NCI)
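Dose response: 5 concentrations. Exposure: 48 h. Format: 96-well plates. Endpoint: linear interpolation; highest concentration if not reached. GI50 = concentration required for 50% inhibition of growth. TGI marks complete inhibition of growth.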

How the values were obtained:
Test in all cases: DTP human tumour cell line panel, 48 h
SW-620 colon = system: SW-620 colon
HS 578T breast = system: HS 578T breast
PC-3 prostate = system: PC-3 prostate
SNB-19 CNS = system: SNB-19 CNS
NCI/ADR-RES ovarian = system: NCI/ADR-RES ovarian
COLO 205 colon = system: COLO 205 colon
SNB-75 CNS = system: SNB-75 CNS
CAKI-1 renal = system: CAKI-1 renal
SF-268 CNS = system: SF-268 CNS
T-47D breast = system: T-47D breast

Row | Compound | TGI (SW-620 colon) [µM] | TGI (HS 578T breast) [µM] | TGI (PC-3 prostate) [µM] | TGI (SNB-19 CNS) [µM] | TGI (NCI/ADR-RES ovarian) [µM] | TGI (COLO 205 colon) [µM] | TGI (SNB-75 CNS) [µM] | TGI (CAKI-1 renal) [µM] | TGI (SF-268 CNS) [µM] | TGI (T-47D breast) [µM] | GI50 (SW-620 colon) [µM] | GI50 (HS 578T breast) [µM] | GI50 (CAKI-1 renal) [µM] | GI50 (SF-268 CNS) [µM] | GI50 (NCI/ADR-RES ovarian) [µM] | GI50 (SNB-75 CNS) [µM] | GI50 (SNB-19 CNS) [µM] | GI50 (COLO 205 colon) [µM]
1 | C[C@]12CC[C@H]3[C@@H](CC=C4C[C@@H](O)CC[C@@]43C)[C@@H]1C/C(=C\c1cccnc1)[C@@H]2O | > 100 | 33.3 | > 100 | 61.5 | > 100 | > 100 | – | – | – | – | – | – | – | – | – | – | – | –
2 | COc1cc2c(c(OC)c1OC)C(=O)c1c(O)cc(C)c(OC)c1C2=O | > 100 | 70.1 | > 100 | > 100 | > 100 | > 100 | > 100 | > 100 | > 100 | – | – | – | – | – | – | – | – | –
3 | ClC1=NSSC1(Cl)Cl | 82.3 | – | > 100 | > 100 | > 100 | 30.8 | > 100 | 34.8 | – | – | – | – | – | – | – | – | – | –
4 | CC(=O)N[C@@H](Cc1ccc(O)cn1)C(=O)NCc1ccc(Cl)cc1 | > 100 | – | > 100 | > 100 | > 100 | > 100 | – | > 100 | – | > 100 | – | – | – | – | – | – | – | –
5 | CCCCCCCCCCCC1N=C(N)N=C(N)N1c1cccc(Br)c1 (centres undefined) | 2.26 | 4.77 | – | – | 39.6 | – | – | 4.12 | 2.7 | – | 0.837 | 2.08 | 1.8 | 1.28 | 14.6 | – | – | –
6 | COC1OC2COC(=O)c3cc(O)c(O)c(O)c3-c3c(cc(O)c(O)c3O)C(=O)OC2C(O)C1O (centres undefined) | 57.9 | > 100 | > 100 | > 100 | > 100 | > 100 | > 100 | > 100 | > 100 | – | – | – | – | – | – | – | – | –
7 | CC(C)c1cc(=O)[nH]c2cc(N)ccc12 | > 100 | – | > 100 | > 100 | > 100 | > 100 | > 100 | > 100 | – | > 100 | – | – | – | – | – | – | – | –
8 | Brc1ccc2[nH]c3c(C4=NCCC4)nccc3c2c1 | > 86.6 | – | – | > 100 | > 100 | > 59.6 | > 82 | > 53.1 | > 70.4 | – | – | – | – | – | – | – | – | –
9 | COCN1C(=O)[C@@H]2CCCN2C(=O)c2ccc(N)cc21 | > 100 | > 100 | > 100 | > 100 | > 100 | > 100 | > 100 | > 100 | > 100 | – | – | – | – | – | – | – | – | –
10 | CNC(=O)OCc1cnc([N+](=O)[O-])n1C | > 100 | > 100 | > 100 | – | > 100 | > 100 | > 100 | > 100 | > 100 | – | – | – | – | – | – | – | – | –
11 | CCOC(=O)C(O)(CC1=NC(C(=O)OC)(C(=O)OC)C(c2cccc(C=O)c2)O1)C(=O)OCC (centres undefined) | > 100 | – | > 100 | > 100 | > 100 | > 100 | > 100 | > 100 | – | > 100 | – | – | – | – | – | – | – | –
12 | CNC(=S)N/N=C/C(C)=N/NC(=S)NC | > 100 | – | – | > 100 | – | > 100 | – | – | > 100 | – | – | – | – | – | – | – | – | –
13 | CCN(CC)c1c(C(C)(C)C)c(=O)n2ccsc2c1OC(C)=O | 30.6 | 42.8 | 23.6 | 30.4 | 28.4 | 31.8 | 31 | 33.1 | 30.1 | – | – | – | – | – | – | – | – | –
14 | Cc1c2cc[n+](Cc3ccc(I)cc3)cc2c(C)c2c1[nH]c1ccccc12 | > 25 | – | – | 9.55 | > 25 | 6.16 | 1.58 | 3.51 | 7.18 | – | – | – | – | – | – | – | – | –
15 | C/C(=C\C(=O)Nc1ccc2n[nH]nc2c1)Nc1ccc2n[nH]nc2c1 | > 100 | – | – | > 100 | – | > 100 | > 100 | > 100 | > 100 | – | – | – | – | – | – | – | – | –
16 | O=CN1CCN(c2ccc3ccc(=O)[nH]c3n2)CC1 | > 100 | > 100 | > 100 | > 100 | > 100 | > 100 | > 100 | > 100 | > 100 | – | – | – | – | – | – | – | – | –
17 | CCOP1(=O)CC(C)=C(Cl)C(OC)C1 (centres undefined) | > 100 | > 100 | > 100 | > 100 | > 100 | > 100 | > 100 | > 100 | > 100 | – | – | – | – | – | – | – | – | –
18 | Nc1nc(SCc2ccccc2Cl)c2ncn(C3OC(CO)C(O)C3O)c2n1 (centres undefined) | > 100 | – | – | > 100 | – | > 100 | 98.2 | > 100 | > 100 | – | – | – | – | – | – | – | – | –
19 | N#C[S-].[La+3].c1ccc(-c2ccccn2)nc1.c1ccc(-c2ccccn2)nc1.c1ccc(-c2ccccn2)nc1 | > 100 | – | – | > 100 | – | > 100 | > 100 | 60.8 | – | – | 33.6 | – | 12.9 | – | – | 25.9 | 54.6 | 45.5
20 | [CH3][Sn]([CH3])([CH3])[S]C(=S)N1CCOCC1 | 2.42 | – | – | – | 11.2 | 0.432 | > 31.4 | > 46.4 | > 100 | – | 0.208 | – | 4 | 3.65 | 1.82 | 3.34 | – | 0.0786
21 | Nc1nc(Cl)c(CO)c(NCC2(CO)CCC2)n1 | > 100 | > 100 | > 100 | > 100 | > 100 | > 100 | > 100 | > 100 | > 100 | – | – | – | – | – | – | – | – | –
